One test has as its target T1, M1 muscarinic receptor (Homo sapiens, UniProt P11229).
T1 construct: expressed in transfected cells; host or cells: CHO (M1-CHO)
T1 sequence (P11229 1-460): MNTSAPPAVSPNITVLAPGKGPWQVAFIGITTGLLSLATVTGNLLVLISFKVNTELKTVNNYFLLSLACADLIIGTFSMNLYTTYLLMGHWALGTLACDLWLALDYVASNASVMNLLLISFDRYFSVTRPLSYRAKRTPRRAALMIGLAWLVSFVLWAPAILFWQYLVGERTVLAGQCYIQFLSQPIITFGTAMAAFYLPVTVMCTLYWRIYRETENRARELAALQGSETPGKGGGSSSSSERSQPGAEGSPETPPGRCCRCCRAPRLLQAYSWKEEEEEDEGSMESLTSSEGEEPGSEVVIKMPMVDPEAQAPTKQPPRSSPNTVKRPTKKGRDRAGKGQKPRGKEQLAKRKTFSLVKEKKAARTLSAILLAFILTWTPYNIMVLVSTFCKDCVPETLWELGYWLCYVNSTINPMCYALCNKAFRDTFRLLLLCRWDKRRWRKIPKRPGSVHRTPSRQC
Put plainly: Functional mobilization of intracellular calcium (FLIPR) in M1-CHO cells. Conditions: Table 4; for Emax: 100% efficacy is the maximum response obtained with the Carbachol control; for M1 Activity: modulating M1 receptor. In kind it is cell-based. The essentials: (§1)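 Steps: seed M1- or M4-CHO cells 18-24 hrs ahead; load calcium dye with 1 mM probenecid; add test compound (0.5% DMSO final), either alone for agonism or 15 min before EC80 carbachol for inhibition; record FLIPR fluorescence for 60 sec.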
For orientation: A change in cytosolic calcium serves as a functional read-out for many receptors and channels.

For another test, the target named is T2, M4 muscarinic receptor (Homo sapiens, UniProt P08173).
T2 construct: expressed in transfected cells; host or cells: CHO (M4-CHO)
T2 sequence (P08173 1-479): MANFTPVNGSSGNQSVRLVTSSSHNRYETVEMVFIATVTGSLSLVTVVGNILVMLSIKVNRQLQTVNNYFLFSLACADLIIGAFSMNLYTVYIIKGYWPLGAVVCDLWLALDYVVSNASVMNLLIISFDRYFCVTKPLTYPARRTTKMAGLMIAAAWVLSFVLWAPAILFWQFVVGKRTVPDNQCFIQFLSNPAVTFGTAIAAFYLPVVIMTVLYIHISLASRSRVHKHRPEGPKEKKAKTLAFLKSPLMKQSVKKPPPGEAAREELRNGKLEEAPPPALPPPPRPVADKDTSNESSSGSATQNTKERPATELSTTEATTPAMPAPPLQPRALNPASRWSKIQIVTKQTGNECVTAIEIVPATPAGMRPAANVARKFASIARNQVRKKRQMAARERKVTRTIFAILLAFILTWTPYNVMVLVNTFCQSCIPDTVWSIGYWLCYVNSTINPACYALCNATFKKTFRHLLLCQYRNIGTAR
Nature of the test: Functional mobilization of intracellular calcium (FLIPR) in M4-CHO cells. In kind it is cell-based. Conditions: Table 4; for Emax: 100% efficacy is the maximum response obtained with the Carbachol control; for M4 Activity: modulating M4 receptor. The essentials: as §1

Take `CCOC(=O)N1CCC(CN2CCC3(CC2)CN(C(C)=O)c2c(C(F)(F)F)cccc23)CC1` [compound 529]: at M1 muscarinic receptor, the Emax (in general, the greatest response seen or fitted, relative to the assay's reference) is 25 to 100% and the “M1 Activity” value is listed as “x (activity was measured to be greater than 5.0 μM)”. On M4 muscarinic receptor, the maximal effect (Emax) is 25 to 100%; the “M4 Activity” value is “xx (activity was measured to be between 2.0 μM and 5.0 μM)”.

On to `CC(=O)N[C@H]1CC2(CCN(Cc3ccoc3)CC2)c2ccccc21` [compound 530], for which, on M1 muscarinic receptor, the Emax is below 25% and the “M1 Activity” value is reported as “x (activity was measured to be greater than 5.0 μM)”. Also, at M4 muscarinic receptor, the Emax was below 25% and the “M4 Activity” value is reported as “x (activity was measured to be greater than 5.0 μM)”.

`CN(C)C(=O)N1CC2(CCN(C3CCN(C(=O)c4cnccn4)CC3)CC2)c2cc(F)ccc21` [compound 531]: at M1 muscarinic receptor, the Emax was below 25% and the “M1 Activity” value was “x (activity was measured to be greater than 5.0 μM)”. On M4 muscarinic receptor, the maximum response (Emax) is below 25% and the “M4 Activity” value is reported as “x (activity was measured to be greater than 5.0 μM)”.

For `CC(=O)N1CC2(CCN(CC3CCN(C(=O)OC4CCC4)CC3)CC2)c2cc(F)ccc21` [compound 532], at M1 muscarinic receptor, the Emax was below 25% and the “M1 Activity” value was “x (activity was measured to be greater than 5.0 μM)”. At M4 muscarinic receptor, the maximum response (Emax) is below 25% and the “M4 Activity” value is on record as “x (activity was measured to be greater than 5.0 μM)”.

In the case of `CC(=O)N[C@H]1CC2(CCN(CC(=O)N3CC=CC3)CC2)c2ccccc21` [compound 533], on M1 muscarinic receptor, the maximal effect (Emax) was below 25% and the “M1 Activity” value is on record as “x (activity was measured to be greater than 5.0 μM)”. At M4 muscarinic receptor, the Emax is below 25% and the “M4 Activity” value is recorded as “x (activity was measured to be greater than 5.0 μM)”.

Take `CN(C)C(=O)N1CC2(CCN(C3CCN(c4ccc(F)cc4)CC3)CC2)c2cc(F)ccc21` [compound 534]: at M1 muscarinic receptor, the Emax fell in the range of 25 to 100%; the “M1 Activity” value was “xx (activity was measured to be between 2.0 μM and 5.0 μM)”. At M4 muscarinic receptor, the maximum response (Emax) was below 25% and the “M4 Activity” value was “xxx (activity was measured to be less than 2.0 μM)”.

For `CN(C)C(=O)N1CC2(CCN(C3CCN(c4cccnc4)CC3)CC2)c2cc(F)ccc21` [compound 535], on M1 muscarinic receptor, the Emax was in the range of 25 to 100% and the “M1 Activity” value is reported as “xxx (activity was measured to be less than 2.0 μM)”. On M4 muscarinic receptor, the Emax was 25 to 100% and the “M4 Activity” value was “xxx (activity was measured to be less than 2.0 μM)”.

Turning to `OC1CC2(CCN([C@@H]3C[C@H]4CC[C@@H]3C4)CC2)c2ccccc21` (stereo partly drawn) [compound 536], at M1 muscarinic receptor, the maximal effect (Emax) is 25 to 100% and the “M1 Activity” value is recorded as “xxx (activity was measured to be less than 2.0 μM)”. For the same compound, on M4 muscarinic receptor, the maximal effect (Emax) was 25 to 100% and the “M4 Activity” value is on record as “xxx (activity was measured to be less than 2.0 μM)”.

Turning to `CCOC(=O)N1CCC(N2CCC3(CC[C@H](NC(C)=O)c4ccccc43)CC2)CC1` [compound 537], on M1 muscarinic receptor, the Emax is 25 to 100% and the “M1 Activity” value was “xxx (activity was measured to be less than 2.0 μM)”. Besides, on M4 muscarinic receptor, the Emax lay in the range of 25 to 100% and the “M4 Activity” value is on record as “xxx (activity was measured to be less than 2.0 μM)”.

On to `CCOC(=O)N1CCC(N2CCC3(C[C@H](NC(C)=O)c4cc(F)ccc43)C2)CC1` (stereo partly drawn) [compound 538], for which, on M1 muscarinic receptor, the Emax was in the range of 25 to 100%; the “M1 Activity” value was “xx (activity was measured to be between 2.0 μM and 5.0 μM)”. On M4 muscarinic receptor, the Emax was below 25% and the “M4 Activity” value is reported as “x (activity was measured to be greater than 5.0 μM)”.

For the compound `COCCOC(=O)N1CCC(N2CCC3(CC2)CN(C(C)=O)c2ccccc23)CC1` [compound 539], at M1 muscarinic receptor, the Emax was in the range of 25 to 100%; the “M1 Activity” value is “xx (activity was measured to be between 2.0 μM and 5.0 μM)”. On M4 muscarinic receptor, the Emax is 25 to 100%; the “M4 Activity” value was “xx (activity was measured to be between 2.0 μM and 5.0 μM)”.

For `COC(=O)N1CC[C@@H](CN2CCC3(CC2)CN(C(=O)N(C)C)c2ccc(F)cc23)C1` [compound 540], at M1 muscarinic receptor, the Emax is 25 to 100% and the “M1 Activity” value is recorded as “xxx (activity was measured to be less than 2.0 μM)”. At M4 muscarinic receptor, the Emax lay in the range of 25 to 100% and the “M4 Activity” value is “xxx (activity was measured to be less than 2.0 μM)”.

Regarding `CC(=O)NC1CCC2(CCN(CCC3CCCN(S(C)(=O)=O)C3)CC2)c2ccccc21` (stereo not drawn) [compound 541], at M1 muscarinic receptor, the maximal effect (Emax) lay in the range of 25 to 100% and the “M1 Activity” value is “xxx (activity was measured to be less than 2.0 μM)”. Besides, at M4 muscarinic receptor, the maximum response (Emax) is below 25% and the “M4 Activity” value is listed as “x (activity was measured to be greater than 5.0 μM)”.

Regarding `O=C(O)C1CC2(CCN(C3CCCC3)CC2)c2ccccc21` (stereo not drawn) [compound 542], on M1 muscarinic receptor, the Emax is below 25% and the “M1 Activity” value is “x (activity was measured to be greater than 5.0 μM)”. At M4 muscarinic receptor, the maximal response (Emax) was below 25% and the “M4 Activity” value is given as “x (activity was measured to be greater than 5.0 μM)”.

Take `CCOC(=O)N1CCC(N2CCC3(CC2)CN(C(=O)C2(O)CC2)c2ccc(F)cc23)CC1` [compound 543]: on M1 muscarinic receptor, the Emax is above 100% and the “M1 Activity” value is recorded as “xxx (activity was measured to be less than 2.0 μM)”. On M4 muscarinic receptor, the Emax was in the range of 25 to 100% and the “M4 Activity” value was “xxx (activity was measured to be less than 2.0 μM)”.

On to `CN(C)C(=O)N1CC2(CCN(C3CCN(C(=O)CC4CCCC4=O)CC3)CC2)c2cc(F)ccc21` (stereo not drawn) [compound 544], for which, at M1 muscarinic receptor, the maximal effect (Emax) lay in the range of 25 to 100%; the “M1 Activity” value is “xx (activity was measured to be between 2.0 μM and 5.0 μM)”. In addition, at M4 muscarinic receptor, the maximum response (Emax) is below 25%; the “M4 Activity” value was “xx (activity was measured to be between 2.0 μM and 5.0 μM)”.

On to `CC(=O)N1CC2(CCN(C3CCN(c4nc5ccccc5s4)CC3)CC2)c2ccccc21` [compound 545], for which, on M1 muscarinic receptor, the maximum response (Emax) is below 25% and the “M1 Activity” value is “x (activity was measured to be greater than 5.0 μM)”. At M4 muscarinic receptor, the maximal effect (Emax) was below 25% and the “M4 Activity” value was “x (activity was measured to be greater than 5.0 μM)”.

For the compound `COc1cc2c(cc1OC)C1(CCN(C3C4CC5CC(C4)CC3C5)CC1)C[C@@H]2NC(C)=O` (stereo partly drawn) [compound 546], at M1 muscarinic receptor, the Emax fell in the range of 25 to 100% and the “M1 Activity” value is on record as “x (activity was measured to be greater than 5.0 μM)”. On M4 muscarinic receptor, the Emax lay within 25 to 100% and the “M4 Activity” value is “x (activity was measured to be greater than 5.0 μM)”.

With `CC(=O)N1CC2(CCN(C3CCNCC3)CC2)c2cc(F)ccc21` [compound 547], at M1 muscarinic receptor, the maximal response (Emax) was 25 to 100%; the “M1 Activity” value was “xx (activity was measured to be between 2.0 μM and 5.0 μM)”. At M4 muscarinic receptor, the maximal response (Emax) was in the range of 25 to 100% and the “M4 Activity” value was “x (activity was measured to be greater than 5.0 μM)”.

Take `O=C(O)C1CC2(CCN(CC3CCCC3)CC2)c2ccccc21` (stereo not drawn) [compound 548]: on M1 muscarinic receptor, the Emax was below 25% and the “M1 Activity” value is “x (activity was measured to be greater than 5.0 μM)”. For the same compound, on M4 muscarinic receptor, the Emax was below 25% and the “M4 Activity” value was “x (activity was measured to be greater than 5.0 μM)”.

As to `C#CCCOC(=O)N1CC[C@H](CN2CCC3(CC2)CN(C(C)=O)c2ccccc23)C1` [compound 549], at M1 muscarinic receptor, the maximum response (Emax) was below 25% and the “M1 Activity” value is given as “x (activity was measured to be greater than 5.0 μM)”. In addition, on M4 muscarinic receptor, the Emax was below 25% and the “M4 Activity” value is reported as “x (activity was measured to be greater than 5.0 μM)”.

For `CC(=O)N1CC2(CCN(CC3CCN(C(=O)O[C@@H]4CCOC4)CC3)CC2)c2cc(C)ccc21` [compound 550], on M1 muscarinic receptor, the Emax is below 25% and the “M1 Activity” value is “x (activity was measured to be greater than 5.0 μM)”. On M4 muscarinic receptor, the maximum response (Emax) is below 25% and the “M4 Activity” value is “x (activity was measured to be greater than 5.0 μM)”.

As for `CCOC(=O)N1CCC(N2CCC3(CC2)CN(C(C)=O)c2c(C(F)(F)F)cccc23)CC1` [compound 551], on M1 muscarinic receptor, the Emax was below 25% and the “M1 Activity” value was “x (activity was measured to be greater than 5.0 μM)”. Also, at M4 muscarinic receptor, the maximum response (Emax) is 25 to 100% and the “M4 Activity” value is reported as “x (activity was measured to be greater than 5.0 μM)”.

In the case of `COc1ccccc1N1CCC(N2CCC3(CC2)CN(C(=O)N(C)C)c2ccc(F)cc23)CC1` [compound 552], at M1 muscarinic receptor, the maximal response (Emax) lay within 25 to 100% and the “M1 Activity” value is “x (activity was measured to be greater than 5.0 μM)”. Further, at M4 muscarinic receptor, the Emax is 25 to 100% and the “M4 Activity” value was “x (activity was measured to be greater than 5.0 μM)”.

For the origin of these results see patent US7786141B2 (Vertex Pharmaceuticals Incorporated, priority 2004, dated 2010).
